The results in this text go back to US20100248965A1, “HERBICIDAL COMBINATION” (Bayer CropScience AG, priority 2007, published 2010).

Values joined by “and” are separate entries in the source; they are usually repeats but may differ in a detail not shown here. Identical values can stand only once.

What all share (format): in vivo
The subject of one test is Polygonum convolvulus. Briefly: Post-emergence action against weeds (greenhouse, visual scoring): Polygonum convolvulus. The following applies: scored 11 days after application. As to the method: (§1) Seeds or rhizome pieces of monocotyledonous and dicotyledonous weeds were placed in sandy loam soil in plastic pots, covered with soil and cultivated in a greenhouse under good growth conditions. Three weeks after sowing, the test plants were treated at the 2- to 4-leaf stage. The compounds according to the invention, formulated as wettable powders or as emulsion concentrates, were sprayed onto the green parts of the plants in various dosages at a water application rate of 100 to 800 l/ha (converted).
(§2) Scoring was carried out 11 days after the application of the sprays. In the case of the combination with B7-16 (table 1-15), the weed was Polygonum spp. and scoring was carried out 20 days after application.
(§3) The control of the weed was scored according to the scheme below.

For the next test, the system named is Polygonum spp. Kind of test: Post-emergence action against weeds (greenhouse, visual scoring): Polygonum spp. The following applies: scored 20 days after application. How it is done:
as §1, §2, §3

In the next test the test system is Veronica persica. Kind of test: Post-emergence action against weeds (greenhouse, visual scoring): Veronica persica. Particulars: scored 10 days after application. As to the method:
as §1, with “(converted). After the test plants had been left to stand in the greenhouse for 10 to 28 days under optimum growth conditions, the effect of the preparations was scored visually in comparison to untreated controls.” for “(converted).”
In an exemplary manner, tables 2-1 to 2-4 below show the improved control of the weed Veronica persica by application of the herbicide combinations according to the invention using the combination of the compound A-2 (sodium salt of 2-iodo-N-[(4-methoxy-6-methyl-1,3,5-triazin-2-yl)carbamoyl]benzenesulfonamide) and selected herbicides from group B, i.e. the herbicides amidosulfuron (=B7-1), ethoxysulfuron (=B7-9), flucarbazone-sodium (B8-1), and sulfosulfuran (B7-28), as an example.
Scoring was carried out 10 days after the application of the sprays according to the scheme below: […]

Setting [1] is: 2.5 g of ai/ha, 0%=no control, 100%=complete control.

Turning to `COC(=O)c1ccccc1S(=O)(=O)NC(=O)N(C)c1nc(C)nc(OC)n1` [Compound B7-31, tribenuron-methyl], in the test with Polygonum convolvulus (10 g of ai/ha), the “Polygonum convolvulus Control in %” value turned out to be 80%.
Turning to `COC(=O)c1csc(C)c1S(=O)(=O)NC(=O)n1nc(OC)n(C)c1=O` [Compound B8-3, thiencarbazone-methyl], in the test with Polygonum convolvulus (1 g of ai/ha), the “Polygonum convolvulus Control in %” value stood at 50%.
Turning to “sodium salt of 2-iodo-N-[(4-methoxy-6-methyl-1,3,5-triazin-2-yl)carbamoyl]benzenesulfonamide [Compound A-2]”, in the test on Polygonum convolvulus (setting [1]), the “Polygonum convolvulus Control in %” value was 10% and 0%. Also, the “Polygonum spp. Control in %” value with Polygonum spp. (2.5 g of ai/ha) is recorded as 0%. In addition, the “Veronica persica Control in %” value with Veronica persica (2.5 g of ai/ha, 0%=No control, 100%=Complete control) was 10% and 0%.
In the case of `COc1nn(C(=O)[N-]S(=O)(=O)c2ccccc2OC(F)(F)F)c(=O)n1C.[Na+]` [Compound B8-1, flucarbazone-sodium], the “Polygonum convolvulus Control in %” value in the test on Polygonum convolvulus (10 g of ai/ha) was 55%. Moreover, in the test with Veronica persica (10 g of ai/ha), the “Veronica persica Control in %” value was 15%.
Take `CCCOc1nn(C(=O)[N-]S(=O)(=O)c2ccccc2C(=O)OC)c(=O)n1C.[Na+]` [Compound B8-2, propoxycarbazone-sodium]: the “Polygonum convolvulus Control in %” value in the test on Polygonum convolvulus (10 g of ai/ha) worked out at 38%.
For the compound `CCOC(=O)Nc1cccc(OC(=O)Nc2ccccc2)c1` [Compound B5-5, desmedipham], the “Polygonum convolvulus Control in %” value in the test with Polygonum convolvulus (50 g of ai/ha) is on record as 28%.
In the case of `CCCc1ccc2nc(Cl)c(S(=O)(=O)NC(=O)Nc3nc(OC)cc(OC)n3)n2n1` [Compound B7-38], the “Polygonum convolvulus Control in %” value in the test with Polygonum convolvulus (30 g of ai/ha) is given as 0%.
Regarding `COc1cc(OC)nc(NC(=O)NS(=O)(=O)N(C)S(C)(=O)=O)n1` [Compound B7-1, amidosulfuron], the “Veronica persica Control in %” value with Veronica persica (5 g of ai/ha) turned out to be 0%.
Regarding `COC(=O)c1ccc(CNS(C)(=O)=O)cc1S(=O)(=O)NC(=O)Nc1nc(OC)cc(OC)n1` [Compound B7-17, mesosulfuron-methyl], the “Polygonum convolvulus Control in %” value with Polygonum convolvulus (5 g of ai/ha) came out at 20%.
Turning to `COC(=O)c1ccc(I)cc1S(=O)(=O)[N-]C(=O)Nc1nc(C)nc(OC)n1.[Na+]` [Compound B7-16, iodosulfuron-methyl-sodium], in the test on Polygonum spp. (2 g of ai/ha), the “Polygonum spp. Control in %” value was 73%.
Take `CCS(=O)(=O)c1nc2ccccn2c1S(=O)(=O)NC(=O)Nc1nc(OC)cc(OC)n1` [Compound B7-28, sulfosulfuron]: the “Polygonum convolvulus Control in %” value with Polygonum convolvulus (7.5 g of ai/ha) came out at 78%. In addition, in the test with Veronica persica (7.5 g of ai/ha), the “Veronica persica Control in %” value turned out to be 30%.
With `COc1cc(OC)nc(NC(=O)NS(=O)(=O)c2cc(NC=O)ccc2C(=O)N(C)C)n1` [Compound B7-13, foramsulfuron], the “Polygonum convolvulus Control in %” value in the test with Polygonum convolvulus (10 g of ai/ha) is given as 15%.
With `CCOc1ccccc1OS(=O)(=O)NC(=O)Nc1nc(OC)cc(OC)n1` [Compound B7-9, ethoxysulfuron], in the test with Veronica persica (5 g of ai/ha), the “Veronica persica Control in %” value came to 8%.
As for `COc1nc(NC(=O)NS(=O)(=O)c2ccccc2C(F)(F)F)nc(C(F)(F)F)n1` [Compound B7-34, tritosulfuron], the “Polygonum convolvulus Control in %” value in the test with Polygonum convolvulus (10 g of ai/ha) is recorded as 58%.
In the case of `COC(=O)c1ccccc1S(=O)(=O)NC(=O)Nc1nc(C)nc(OC)n1` [Compound B7-18, metsulfuron-methyl], the “Polygonum convolvulus Control in %” value with Polygonum convolvulus (setting [1]) came out at 70%.
Still for that read-out and setting: in the case of `COc1cc(OC)n2nc(NS(=O)(=O)c3c(C(F)(F)F)ccnc3OC)nc2n1` [Compound B9-7, pyroxsulam] it was 75%.
On to `COC(=O)c1sccc1S(=O)(=O)NC(=O)Nc1nc(C)nc(OC)n1` [Compound B7-29, thifensulfuron-methyl], for which the “Polygonum convolvulus Control in %” value with Polygonum convolvulus (7.5 g of ai/ha) was 87%.
As for `COc1ncc(F)c2nc(S(=O)(=O)Nc3c(F)cccc3F)nn12` [Compound B9-3, florasulam], the “Polygonum convolvulus Control in %” value in the test with Polygonum convolvulus (setting [1]) is listed as 73%.
